# Calls of active or inactive are those of the source. No cut-off for these calls is given here. *1 amine or outer side, *2 acyl side, *3 side chain or, on linkers, in order; H or OH if unused. Where a SMILES comes first, the peptide text is derived from it. Bridges are numbered along the chain shown (N, C = ends). [ ]: non-standard residue; d: D form. Phe(3R-OH) = O=C([C@@H](N[*:1])[C@H](O[*:3])c1ccccc1)[*:2]; NMeTrp(4-OMe) = CN[C@@H](Cc1c[nH]c2cccc(OC)c12)C(=O)O; NMeT = CN[C@H](C(=O)O)[C@@H](C)O; NMeL = CN[C@@H](CC(C)C)C(=O)O; NMeV = CN[C@H](C(=O)O)C(C)C
# Columns and labels:
# HCT-116 [1] = assay: Induction of apoptosis in human HCT116 cells assessed as reduction in uncleaved full length caspase 8 level after 24 hrs by Western blot analysis; assay type: functional, cell-based
# HCT-116 [2] = assay: Induction of morphological changes in human HCT116 cells assessed as appearance of shrunken cells at 4 to 20 uM by inverted phase-contrast microscopic method; assay type: functional, cell-based
# HCT-116 [3] = assay: Antitumor activity against human HCT116 cells xenografted in BALB/c nude mouse assessed as tumor weight at 10 mg/kg, ip administered thrice a week for 3.5 weeks measured on last day (reference value: 100%); assay type: functional
# HCT-116 [4] = assay: Induction of cell cycle arrest in human HCT116 cells assessed as accumulation at G0/G1 phase at 20 uM incubated for 24 hrs by propidium iodide staining based flow cytometry (reference value: 54.7%); assay type: functional
# HCT-116 [5] = assay: Effect on Cul1 expression in human HCT116 cells at 5 to 20 uM after 24 hrs by Western blot analysis; assay type: functional, cell-based
# HCT-116 [6] = assay: Induction of cell cycle arrest in human HCT116 cells assessed as accumulation at S phase at 10 uM incubated for 18 hrs by propidium iodide staining based flow cytometry (reference value: 26.8%); assay type: functional
# HCT-116 [7] = assay: Induction of cell cycle arrest in human HCT116 cells assessed as accumulation at G2/M phase at 20 uM incubated for 24 hrs by propidium iodide staining based flow cytometry (reference value: 15.7%); assay type: functional
# HCT-116 [8] = assay: Decrease in cell cycle associated protein expression in human HCT116 cells assessed as reduction in cyclin E expression at 5 to 20 uM after 24 hrs by Western blot analysis; assay type: functional, cell-based
# HCT-116 [9] = assay: Induction of cell cycle arrest in human HCT116 cells assessed as accumulation at S phase at 20 uM incubated for 24 hrs by propidium iodide staining based flow cytometry (reference value: 21.2%); assay type: functional
# HCT-116 [10] = assay: Induction of cell cycle arrest in human HCT116 cells assessed as accumulation at sub-G1 phase at 5 uM incubated for 18 hrs by propidium iodide staining based flow cytometry (reference value: 0.9%); assay type: functional
# HCT-116 [11] = assay: Modulation of Skp2-p27 Axis in human HCT116 cells assessed as upregulation of p21 expression after 24 hrs by Western blot analysis; assay type: functional, cell-based
# HCT-116 [12] = assay: Downregulation of HSPA1B gene expression in human HCT116 cells assessed as fold change at 15 uM incubated for 24 hrs by cDNA microarray analysis relative to control; assay type: functional
# HCT-116 [13] = assay: Downregulation of MCM10 gene expression in human HCT116 cells assessed as fold change at 15 uM incubated for 24 hrs by cDNA microarray analysis relative to control; assay type: functional
# HCT-116 [14] = assay: Effect on Skp1 expression in human HCT116 cells at 5 to 20 uM after 24 hrs by Western blot analysis; assay type: functional, cell-based
# HCT-116 [15] = assay: Induction of cell cycle arrest in human HCT116 cells assessed as accumulation at sub-G1 phase at 20 uM incubated for 24 hrs by propidium iodide staining based flow cytometry (reference value: 4.8%); assay type: functional
# HCT-116 [16] = assay: Decrease in cell cycle associated protein expression in human HCT116 cells assessed as reduction in CDK2 expression at 5 to 20 uM after 24 hrs by Western blot analysis; assay type: functional, cell-based
# MDA-MB-231 = assay: Antiproliferative activity against human MDA-MB-231 cells after 72 hrs by sulforhodamine B assay; assay type: functional, cell-based; conditions: MDA-MB-231, 72 h
# HCT-116 [17] = assay: Induction of cell cycle arrest in human HCT116 cells assessed as accumulation at G0/G1 phase at 5 uM incubated for 18 hrs by propidium iodide staining based flow cytometry (reference value: 43.3%); assay type: functional
# HCT-116 [18] = assay: Downregulation of MCM4 gene expression in human HCT116 cells assessed as fold change at 15 uM incubated for 24 hrs by cDNA microarray analysis relative to control; assay type: functional
# HCT-116 [19] = assay: Induction of apoptosis in human HCT116 cells assessed as reduction in Bcl-2 level at 5 to 20 uM after 24 hrs by Western blot analysis; assay type: functional, cell-based
# HCT-116 [20] = assay: Induction of cell cycle arrest in human HCT116 cells assessed as accumulation at G0/G1 phase at 5 uM incubated for 24 hrs by propidium iodide staining based flow cytometry (reference value: 54.7%); assay type: functional
# HCT-116 [21] = assay: Induction of apoptosis in human HCT116 cells assessed as increase in cleaved caspase 8 level after 24 hrs by Western blot analysis; assay type: functional, cell-based
# A549 = assay: Antiproliferative activity against human A549 cells after 72 hrs by sulforhodamine B assay; assay type: functional, cell-based; conditions: A549, 72 h
# HCT-116 [22] = assay: Induction of apoptosis in human HCT116 cells assessed as reduction in survivin level at 5 to 20 uM after 24 hrs by Western blot analysis; assay type: functional, cell-based
# HCT-116 [23] = assay: Modulation of Skp2-p27 Axis in human HCT116 cells assessed as reduction in Skp2 mRNA level at 5 to 20 uM after 12 hrs by real-time PCR method; assay type: functional, cell-based
# HCT-116 [24] = assay: Induction of cell cycle arrest in human HCT116 cells assessed as accumulation at G0/G1 phase at 10 uM incubated for 18 hrs by propidium iodide staining based flow cytometry (reference value: 43.3%); assay type: functional
# HCT-116 [25] = assay: Induction of cell cycle arrest in human HCT116 cells assessed as accumulation at G2/M phase at 10 uM incubated for 18 hrs by propidium iodide staining based flow cytometry (reference value: 25.1%); assay type: functional
# [26] = Toxicity in BALB/c nude mouse assessed as changes in body weight at 5 to 10 mg/kg, ip administered thrice a week for 3.5 weeks; assay type: organism-based; conditions: in vivo, 588 h
# HCT-116 [27] = assay: Downregulation of HSPA1A gene expression in human HCT116 cells assessed as fold change at 15 uM incubated for 24 hrs by cDNA microarray analysis relative to control; assay type: functional
# HCT-116 [28] = assay: Downregulation of MCM5 gene expression in human HCT116 cells assessed as fold change at 15 uM incubated for 24 hrs by cDNA microarray analysis relative to control; assay type: functional
# HCT-116 [29] = assay: Induction of cell cycle arrest in human HCT116 cells assessed as accumulation at sub-G1 phase at 5 uM incubated for 24 hrs by propidium iodide staining based flow cytometry (reference value: 4.8%); assay type: functional
# HCT-116 [30] = assay: Induction of apoptosis in human HCT116 cells assessed as increase in cleaved caspase 7 level after 24 hrs by Western blot analysis; assay type: functional, cell-based
# HCT-116 [31] = assay: Induction of apoptosis in human HCT116 cells assessed as reduction in uncleaved full length caspase 7 level after 24 hrs by Western blot analysis; assay type: functional, cell-based
# HCT-116 [32] = assay: Downregulation of TMSB15A gene expression in human HCT116 cells assessed as fold change at 15 uM incubated for 24 hrs by cDNA microarray analysis relative to control; assay type: functional
# HCT-116 [33] = assay: Decrease in cell cycle associated protein expression in human HCT116 cells assessed as reduction in CDK4 expression at 5 to 20 uM after 24 hrs by Western blot analysis; assay type: functional, cell-based
# HCT-116 [34] = assay: Induction of cell cycle arrest in human HCT116 cells assessed as accumulation at G2/M phase at 5 uM incubated for 18 hrs by propidium iodide staining based flow cytometry (reference value: 25.1%); assay type: functional
# HCT-116 [35] = assay: Downregulation of MCM4 mRNA expression in human HCT116 cells after 12 hrs by RT-PCR method; assay type: functional, cell-based
compound,measurement,setting,value
CN[C@H](C(=O)N[C@H](C(=O)N[C@@H]1C(=O)N(C)[C@@H]([C@@H](C)O)C(=O)N[C@@H](C(C)C)C(=O)N(C)[C@@H](CC(C)C)C(=O)N[C@@H](C(C)C)C(=O)N(C)[C@@H](C(C)C)C(=O)N(C)[C@@H](Cc2c[nH]c3cccc(OC)c23)C(=O)N[C@@H](C(C)C)C(=O)N[C@@H]([C@H](O)c2ccccc2)C(=O)N[C@@H](C(C)C)C(=O)O[C@@H]1C)C(C)C)C(C)C (H-[NMeV]VT[NMeT]V[NMeL]V[NMeV][NMeTrp(4-OMe)]V[Phe(3R-OH)]V; ester 3-C),Activity,HCT-116 [1],Dose-dependent effect
same,Activity,HCT-116 [2],Active
same,Activity,HCT-116 [3],47.9%
same,Activity,HCT-116 [4],30.9%
same,Activity,HCT-116 [5],inactive
same,Activity,HCT-116 [6],26.6%
same,Activity,HCT-116 [7],10.8%
same,inhibition,HCT-116 [8],Active
same,Activity,HCT-116 [9],24.1%
same,Activity,HCT-116 [10],1.4%
same,Activity,HCT-116 [11],Dose-dependent effect
same,fold change (FC),HCT-116 [12],4.531
same,fold change (FC),HCT-116 [13],4.889
same,Activity,HCT-116 [14],inactive
same,Activity,HCT-116 [15],31.4%
same,inhibition,HCT-116 [16],Active
same,IC50,MDA-MB-231,9.89 µM
same,Activity,HCT-116 [17],45.8%
same,fold change (FC),HCT-116 [18],6.074
same,Activity,HCT-116 [19],Active
same,Activity,HCT-116 [20],60.9%
same,Activity,HCT-116 [21],Dose-dependent effect
same,IC50,A549,8.35 µM
same,Activity,HCT-116 [22],Active
same,inhibition,HCT-116 [23],Active
same,Activity,HCT-116 [24],51.4%
same,Activity,HCT-116 [25],15.4%
same,Activity,[26],Non-Toxic
same,fold change (FC),HCT-116 [27],4.43
same,fold change (FC),HCT-116 [28],5.219
same,Activity,HCT-116 [29],19%
same,Activity,HCT-116 [30],Dose-dependent effect
same,Activity,HCT-116 [31],Dose-dependent effect
same,fold change (FC),HCT-116 [32],6.779
same,inhibition,HCT-116 [33],Active
same,Activity,HCT-116 [34],22.3%
same,inhibition,HCT-116 [35],Dose-dependent effect
